System: 324938-238-R-J1-PDC complex spheroid viability
Test: Anticancer human tumor 324938-238-R-J1-PDC patient-derived bladder carcinoma cell line growth inhibition
Details: for IC50: curve of first compound; for viability, T/C: stronger effect = lower value
How it was run: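 Drug combinations with the LSD1 inhibitor iadademstat tested on tumor cells co-cultured as spheroids with endothelial cells and mesenchymal stem cells. Concentrations descended in half-log increments from clinical Cmax or 10 microM.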

[1] = second compound 0.1 µM, first compound 0.000316 µM
[2] = second compound 0.1 µM, first compound 0.001 µM
[3] = second compound 0.1 µM, first compound 0.00316 µM
[4] = second compound 0.1 µM, first compound 0.01 µM
[5] = second compound 0.1 µM, first compound 0.0316 µM
[6] = second compound 0.1 µM, first compound 0.1 µM
[7] = second compound 0.316 µM, first compound 0.000316 µM
[8] = second compound 0.316 µM, first compound 0.001 µM
[9] = second compound 0.316 µM, first compound 0.00316 µM
[10] = second compound 0.316 µM, first compound 0.01 µM
[11] = second compound 0.316 µM, first compound 0.0316 µM
[12] = second compound 0.316 µM, first compound 0.1 µM
[13] = second compound 1 µM, first compound 0.000316 µM
[14] = second compound 1 µM, first compound 0.001 µM
[15] = second compound 1 µM, first compound 0.00316 µM
[16] = second compound 1 µM, first compound 0.01 µM
[17] = second compound 1 µM, first compound 0.0316 µM
[18] = second compound 1 µM, first compound 0.1 µM
[19] = second compound 3.16 µM, first compound 0.000316 µM
[20] = second compound 3.16 µM, first compound 0.001 µM
[21] = second compound 3.16 µM, first compound 0.00316 µM
[22] = second compound 3.16 µM, first compound 0.01 µM
[23] = second compound 3.16 µM, first compound 0.0316 µM
[24] = second compound 3.16 µM, first compound 0.1 µM
[25] = second compound 10 µM, first compound 0.000316 µM
[26] = second compound 10 µM, first compound 0.001 µM
[27] = second compound 10 µM, first compound 0.00316 µM
[28] = second compound 10 µM, first compound 0.01 µM
[29] = second compound 10 µM, first compound 0.0316 µM
[30] = second compound 10 µM, first compound 0.1 µM
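Note: spheroids also contain HUVEC and human MSCs and agents combined with iadademstat; spheroids exposed to agents for 7 days before readout.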

Row | Structure (SMILES) | IC50 (second compound 0.1 µM) [nM] | IC50 (second compound 0.316 µM) [nM] | IC50 (second compound 1 µM) [nM] | IC50 (second compound 3.16 µM) [nM] | IC50 (second compound 10 µM) [nM] | viability, T/C [1] [%] | viability, T/C [2] [%] | viability, T/C [3] [%] | viability, T/C [4] [%] | viability, T/C [5] [%] | viability, T/C [6] [%] | viability, T/C [7] [%] | viability, T/C [11] [%] | viability, T/C [12] [%] | viability, T/C [17] [%] | viability, T/C [18] [%] | viability, T/C [23] [%] | viability, T/C [24] [%] | viability, T/C [29] [%] | viability, T/C [30] [%] | other results
1 | CC(C)CC(NC(=O)CNC(=O)c1cc(Cl)ccc1Cl)B1OC(=O)CC(CC(=O)O)(C(=O)O)O1 (stereo not given) + NC1CC1c1ccc(-c2cccc(O)c2)cc1 | 1.65 | 1.39 | 1.39 | 1.36 | 1.18 | 94.4 | 68.7 | 25.7 | 5.88 | 3.13 | 0.16 | 73 | 0.95 | 0.15 | 0.4 | 1.08 | 0.71 | 1.92 | 0.54 | 0.22 | viability, T/C [8]: 59.3%; viability, T/C [9]: 26.3%; viability, T/C [10]: 4.54%; viability, T/C [13]: 78.3%; viability, T/C [14]: 61.5%; viability, T/C [15]: 21.6%; viability, T/C [16]: 4.36%; viability, T/C [19]: 77.5%; viability, T/C [20]: 58.5%; viability, T/C [21]: 26.3%; viability, T/C [22]: 5.45%; viability, T/C [25]: 67.7%; viability, T/C [26]: 54.7%; viability, T/C [27]: 20.6%; viability, T/C [28]: 2.92%
2 | CC(C)CC(NC(=O)C(Cc1ccccc1)NC(=O)c1cnccn1)B(O)O (stereo not given) + NC1CCC(NC2CC2c2ccccc2)CC1 | 0.472 | 0.443 | 0.483 | 0.442 | 0.434 | 66.8 | 18.7 | 0.06 | 0.03 | 0.03 | 0.15 | 64.9 | 0.02 | 0.12 | 0.73 | 0.11 | 0.03 | 0.12 | 0.1 | 0.17 | viability, T/C [8]: 14.3%; viability, T/C [9]: 0.14%; viability, T/C [10]: 0.01%; viability, T/C [13]: 72.2%; viability, T/C [14]: 12.1%; viability, T/C [15]: 0.1%; viability, T/C [16]: 0.01%; viability, T/C [19]: 65%; viability, T/C [20]: 13.8%; viability, T/C [21]: 0.43%; viability, T/C [22]: 0.02%; viability, T/C [25]: 65%; viability, T/C [26]: 10.8%; viability, T/C [27]: 0.12%; viability, T/C [28]: 0.29%
3 | CC(C)c1c(-c2ccccc2)nc2c(C#N)c[nH]n2c1=O + NC1CC1c1ccc(-c2cccc(O)c2)cc1 | > 10000 | > 10000 | > 10000 | > 10000 | > 10000 | – | – | – | – | 104 | 98.2 | – | 82.9 | 84.9 | 85.7 | 99.3 | 86.7 | 92.1 | 89.5 | 85.4 | viability, T/C (second compound 0.1 µM, first compound 0.316 µM): 101%; viability, T/C (second compound 0.1 µM, first compound 1 µM): 94%; viability, T/C (second compound 0.1 µM, first compound 3.16 µM): 90.8%; viability, T/C (second compound 0.1 µM, first compound 10 µM): 72.6%; viability, T/C (second compound 0.316 µM, first compound 0.316 µM): 87.2%; viability, T/C (second compound 0.316 µM, first compound 1 µM): 82.6%; viability, T/C (second compound 0.316 µM, first compound 3.16 µM): 88.7%; viability, T/C (second compound 0.316 µM, first compound 10 µM): 79.1%; viability, T/C (second compound 1 µM, first compound 0.316 µM): 85.4%; viability, T/C (second compound 1 µM, first compound 1 µM): 89.1%; viability, T/C (second compound 1 µM, first compound 3.16 µM): 81.7%; viability, T/C (second compound 1 µM, first compound 10 µM): 81%; viability, T/C (second compound 3.16 µM, first compound 0.316 µM): 86.5%; viability, T/C (second compound 3.16 µM, first compound 1 µM): 89.7%; viability, T/C (second compound 3.16 µM, first compound 3.16 µM): 82.7%; viability, T/C (second compound 3.16 µM, first compound 10 µM): 77.3%; viability, T/C (second compound 10 µM, first compound 0.316 µM): 86.9%; viability, T/C (second compound 10 µM, first compound 1 µM): 88.9%; viability, T/C (second compound 10 µM, first compound 3.16 µM): 89.3%; viability, T/C (second compound 10 µM, first compound 10 µM): 80.8%
4 | CC(C)CC(NC(=O)C(Cc1ccccc1)NC(=O)c1cnccn1)B(O)O (stereo not given) + NC1CC1c1ccc(-c2cccc(O)c2)cc1 | 0.458 | 0.404 | 0.364 | 0.389 | 0.34 | 68.2 | 12.1 | 0.5 | 2.29 | 0.55 | 0.16 | 62 | 0.26 | 0.14 | 0.07 | 0.17 | 0.28 | 0.14 | 0.16 | 0.21 | viability, T/C [8]: 5.56%; viability, T/C [9]: 0.25%; viability, T/C [10]: 0.3%; viability, T/C [13]: 56%; viability, T/C [14]: 6.79%; viability, T/C [15]: 0.15%; viability, T/C [16]: 0.61%; viability, T/C [19]: 59.2%; viability, T/C [20]: 7.68%; viability, T/C [21]: 0.39%; viability, T/C [22]: 0.28%; viability, T/C [25]: 53.1%; viability, T/C [26]: 4.57%; viability, T/C [27]: 0.15%; viability, T/C [28]: 0.15%
